In ChEMBL document CHEMBL1143893, “Novel nitroheterocyclic hypoxic markers for solid tumor: synthesis and biological evaluation” (Bioorg Med Chem, 2008):

Assay: Drug level in Chinese hamster V79 379A cells at 0.1 mM after 3.5 hrs by fluorescence microplate reader relative to control
Type: ADME, cell-based, Cricetulus griseus
Settings: 100 µM

| Fold change | Compound |
| --- | --- |
| 11 | CN(C)CCNc1ccc2c3c(cccc13)-c1nc3cc([N+](=O)[O-])ccc3nc1-2 |
| 9 | CN1CCN(c2ccc3c4c(cccc24)-c2nc4cc([N+](=O)[O-])ccc4nc2-3)CC1 |
| 6 | O=[N+]([O-])c1ccc2nc3c(nc2c1)-c1cccc2c([N+](=O)[O-])ccc-3c12 |
